Test results from US11957687B2 (REGENERON PHARMACEUTICALS, INC., priority 2019, dated 2024).

Target: HSD17B13 (Homo sapiens (Human), UniProt Q7Z5P4)
Assay: HSD17B13 enzymatic inhibition assay (150 nM or 50 nM HSD17B13)
Assay type: biochemical
Settings: 50 nM HSD17B13; read-out: Inhibition of 50 nM of HSD17B13 IC50

HSD17B13, sequence (Q7Z5P4 other isoform, or with tags, fused parts or gaps): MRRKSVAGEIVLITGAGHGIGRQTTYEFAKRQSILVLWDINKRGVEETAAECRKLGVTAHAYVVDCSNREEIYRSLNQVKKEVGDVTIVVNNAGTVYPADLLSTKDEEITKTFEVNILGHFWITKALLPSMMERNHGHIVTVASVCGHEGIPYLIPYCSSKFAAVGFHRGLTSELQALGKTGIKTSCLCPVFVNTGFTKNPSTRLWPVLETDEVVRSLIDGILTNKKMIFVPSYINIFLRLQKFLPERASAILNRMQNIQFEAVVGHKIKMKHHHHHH

| IC50 [nM] | SMILES |
| --- | --- |
| 9170 | Cc1ccc2c(c1)OCC2NC(=O)c1ccc(C(F)(F)F)[nH]c1=O (stereo not shown) [Compound 395, N-(6-methyl-2,3-dihydrobenzofuran-3-yl)-2-oxo-6-(trifluoromethyl)-1,2-dihydropyridine-3-carboxamide] |
| 260 | Cc1ccc2c(c1)SCCC2NC(=O)c1ccc(C(F)(F)F)[nH]c1=O (stereo not shown) [Compound 396, N-(7-methylthiochroman-4-yl)-2-oxo-6-(trifluoromethyl)-1H-pyridine-3-carboxamide] |
| 2970 | Cc1ccc([C@H](NC(=O)c2ccc(C(F)(F)F)[nH]c2=O)[C@@H]2CCCOC2)cc1 [Compound 397, 2-oxo-N—((R)—((S)-tetrahydro-2H-pyran-3-yl)(p-tolyl)methyl)-6-(trifluoromethyl)-1,2-dihydropyridine-3-carboxamide] |
| 6150 | Cc1ccc([C@H](NC(=O)c2ccc(C(F)(F)F)[nH]c2=O)[C@H]2CCCOC2)cc1 [Compound 398, 2-oxo-N—((R)—((R)-tetrahydro-2H-pyran-3-yl)(p-tolyl)methyl)-6-(trifluoromethyl)-1,2-dihydropyridine-3-carboxamide] |
| 300 | CC1CCC(C(NC(=O)c2ccc(C(F)(F)F)[nH]c2=O)c2ccccc2)CC1 (stereo not shown) [Compound 399, N-((4-methylcyclohexyl)(phenyl)methyl)-2-oxo-6-(trifluoromethyl)-1,2-dihydropyridine-3-carboxamide] |
| 230 | Cc1ccc(C(NC(=O)c2ccc(C(F)(F)F)[nH]c2=O)C2CCC(C)CC2)cc1 (stereo not shown) [Compound 400, N-((4-methylcyclohexyl)(p-tolyl)methyl)-2-oxo-6-(trifluoromethyl)-1,2-dihydropyridine-3-carboxamide] |
| 360 | CCCC(NC(=O)c1ccc(C(F)(F)F)[nH]c1=O)c1ccc(C)cc1 (stereo not shown) [Compound 402, 2-oxo-N-(1-(p-tolyl)butyl)-6-(trifluoromethyl)-1,2-dihydropyridine-3-carboxamide] |
| 110 | CCCC1CC(NC(=O)c2ccc(C(F)(F)F)[nH]c2=O)c2cc(C)ccc2O1 (stereo not shown) [Compound 403, N-(6-methyl-2-propylchroman-4-yl)-2-oxo-6-(trifluoromethyl)-1,2-dihydropyridine-3-carboxamide] |
| 220 | CCC1CC(NC(=O)c2ccc(C(F)(F)F)[nH]c2=O)c2cc(C)ccc2O1 (stereo not shown) [Compound 404, N-(2-ethyl-6-methylchroman-4-yl)-2-oxo-6-(trifluoromethyl)-1,2-dihydropyridine-3-carboxamide] |
| 2470 | Cc1ccc2c(c1)C(NC(=O)c1ccc(C(F)(F)F)[nH]c1=O)CO2 (stereo not shown) [Compound 408, N-(5-methyl-2,3-dihydrobenzofuran-3-yl)-2-oxo-6-(trifluoromethyl)-1,2-dihydropyridine-3-carboxamide] |
| 430 | COc1ccc2c(c1)Sc1cc(N)ccc1C2NC(=O)c1ccc(C(F)F)[nH]c1=O (stereo not shown) [Compound 410, N-(3-amino-6-methoxy-9H-thioxanthen-9-yl)-6-(difluoromethyl)-2-oxo-1,2-dihydropyridine-3-carboxamide] |
| 80 | COc1ccc2c(c1)Sc1cc(N)ccc1C2NC(=O)c1ccc(C(F)(F)F)[nH]c1=O (stereo not shown) [Compound 411, N-(3-amino-6-methoxy-9H-thioxanthen-9-yl)-2-oxo-6-(trifluoromethyl)-1,2-dihydropyridine-3-carboxamide] |
| 110 | Cc1ccc(C(CC2CCCC2)NC(=O)c2ccc(C(F)(F)F)[nH]c2=O)cc1 (stereo not shown) [Compound 412, N-(2-cyclopentyl-1-(p-tolyl)ethyl)-2-oxo-6-(trifluoromethyl)-1,2-dihydropyridine-3-carboxamide] |
| 880 | O=C(NC1c2cc(OC(F)(F)F)ccc2-c2ccc(OC(F)(F)F)cc21)c1ccc(C(F)(F)F)[nH]c1=O [Compound 413, N-(2,7-bis(trifluoromethoxy)-9H-fluoren-9-yl)-2-oxo-6-(trifluoromethyl)-1,2-dihydropyridine-3-carboxamide] |
| 50 | COc1ccc2c(c1)C(NC(=O)c1ccc(C(F)(F)F)[nH]c1=O)c1cc(OC)ccc1-2 [Compound 415, N-(2,7-dimethoxy-9H-fluoren-9-yl)-2-oxo-6-(trifluoromethyl)-1,2-dihydropyridine-3-carboxamide] |
| 70 | Cc1ccc2c(c1)C(NC(=O)c1ccc(C(F)(F)F)[nH]c1=O)c1cc(C)ccc1-2 [Compound 418, N-(2,7-dimethyl-9H-fluoren-9-yl)-2-oxo-6-(trifluoromethyl)-1,2-dihydropyridine-3-carboxamide] |
| 130 | CNc1ccc(C(NC(=O)c2ccc(C(F)(F)F)[nH]c2=O)c2ccc(C)cc2)cc1 (stereo not shown) [Compound 420, N-((4-(methylamino)phenyl)(p-tolyl)methyl)-2-oxo-6-(trifluoromethyl)-1,2-dihydropyridine-3-carboxamide] |

| IC50 [nM] | SMILES |
| --- | --- |
| 790 | CC(F)(F)c1ccc(C(=O)NC2c3ccccc3Sc3ccccc32)c(=O)[nH]1 [Compound 423, 6-(1,1-difluoroethyl)-2-oxo-N-(9H-thioxanthen-9-yl)-1,2-dihydropyridine-3-carboxamide] |
| 1140 | CC(F)(F)c1ccc(C(=O)NC2c3ccccc3Oc3ccccc32)c(=O)[nH]1 [Compound 424, 6-(1,1-difluoroethyl)-2-oxo-N-(9H-xanthen-9-yl)-1,2-dihydropyridine-3-carboxamide] |
| 270 | Cc1ccc2c(c1)S(=O)(=O)c1cc(C)ccc1C2NC(=O)c1cc(N2CCNCC2)c(C(F)(F)F)[nH]c1=O [Compound 425, N-(3,6-dimethyl-10,10-dioxido-9H-thioxanthen-9-yl)-2-oxo-5-(piperazin-1-yl)-6-(trifluoromethyl)-1,2-dihydropyridine-3-carboxamide] |
| 130 | Cc1ccc2c(c1)Sc1cc(C)ccc1C2NC(=O)c1cc(N2CCN(C)CC2)c(C(F)(F)F)[nH]c1=O [Compound 427, N-(3,6-dimethyl-9H-thioxanthen-9-yl)-5-(4-methylpiperazin-1-yl)-2-oxo-6-(trifluoromethyl)-1,2-dihydropyridine-3-carboxamide] |
| 20 | Cc1ccc2c(c1)S(=O)(=O)c1cc(C)ccc1C2NC(=O)c1cc(NC2CCCCC2)c(C(F)(F)F)[nH]c1=O [Compound 428, 5-(cyclohexylamino)-N-(3,6-dimethyl-10,10-dioxido-9H-thioxanthen-9-yl)-2-oxo-6-(trifluoromethyl)-1,2-dihydropyridine-3-carboxamide] |
| 320 | Cc1ccc2c(c1)Oc1cc(C)ccc1C2NC(=O)c1cc(CN2CCNCC2)c(C(F)(F)F)[nH]c1=O [Compound 429, N-(3,6-dimethyl-9H-xanthen-9-yl)-2-oxo-5-(piperazin-1-ylmethyl)-6-(trifluoromethyl)-1,2-dihydropyridine-3-carboxamide] |
| 40 | Cc1ccc2c(c1)Oc1cc(C)ccc1C2NC(=O)c1cc(N2CCN(Cc3ccccc3)CC2)c(C(F)(F)F)[nH]c1=O [Compound 430, 5-(4-benzylpiperazin-1-yl)-N-(3,6-dimethyl-9H-xanthen-9-yl)-2-oxo-6-(trifluoromethyl)-1,2-dihydropyridine-3-carboxamide] |
| 130 | Cc1ccc2c(c1)Sc1cc(C)ccc1C2NC(=O)c1cc(NC2CCCCC2)c(C(F)(F)F)[nH]c1=O [Compound 431, 5-(cyclohexylamino)-N-(3,6-dimethyl-9H-thioxanthen-9-yl)-2-oxo-6-(trifluoromethyl)-1,2-dihydropyridine-3-carboxamide] |
| 330 | Cc1ccc2c(c1)Sc1cc(C)ccc1C2NC(=O)c1cc(N2CCNCC2)c(C(F)(F)F)[nH]c1=O [Compound 432, N-(3,6-dimethyl-9H-thioxanthen-9-yl)-2-oxo-5-(piperazin-1-yl)-6-(trifluoromethyl)-1,2-dihydropyridine-3-carboxamide] |
| 730 | Cc1ccc2c(c1)Oc1cc(C)ccc1C2NC(=O)c1cc(NC2CCNCC2)c(C(F)(F)F)[nH]c1=O [Compound 433, N-(3,6-dimethyl-9H-xanthen-9-yl)-2-oxo-5-(piperidin-4-ylamino)-6-(trifluoromethyl)-1,2-dihydropyridine-3-carboxamide] |
| 110 | Cc1ccc2c(c1)Oc1cc(C)ccc1C2NC(=O)c1cc(N2CCNCC2)c(C(F)(F)F)[nH]c1=O [Compound 434, N-(3,6-dimethyl-9H-xanthen-9-yl)-2-oxo-5-(piperazin-1-yl)-6-(trifluoromethyl)-1,2-dihydropyridine-3-carboxamide] |
| 1290 | Cc1ccc2c(c1)Oc1cccc(C)c1C2NC(=O)c1cc(N2CCCCC2)c(C(F)(F)F)[nH]c1=O (stereo not shown) [Compound 437, N-(1,6-dimethyl-9H-xanthen-9-yl)-2-oxo-5-(piperidin-1-yl)-6-(trifluoromethyl)-1,2-dihydropyridine-3-carboxamide] |
| 560 | Cc1ccc2c(c1)Oc1cccc(C)c1C2NC(=O)c1cc(N2CCOCC2)c(C(F)(F)F)[nH]c1=O (stereo not shown) [Compound 439, N-(1,6-dimethyl-9H-xanthen-9-yl)-5-morpholino-2-oxo-6-(trifluoromethyl)-1,2-dihydropyridine-3-carboxamide] |
| 700 | COCCOc1ccc2c(c1)Oc1ccccc1C2NC(=O)c1ccc(C(F)(F)F)[nH]c1=O (stereo not shown) [Compound 440, N-(3-(2-methoxyethoxy)-9H-xanthen-9-yl)-2-oxo-6-(trifluoromethyl)-1,2-dihydropyridine-3-carboxamide] |
| 2560 | Cc1ccc(C(NC(=O)c2ccc(C(F)(F)F)[nH]c2=O)c2ccccc2)c(S(C)(=O)=O)c1 (stereo not shown) [Compound 442, N-((4-methyl-2-(methylsulfonyl)phenyl)(phenyl)methyl)-2-oxo-6-(trifluoromethyl)-1,2-dihydropyridine-3-carboxamide] |
| 120 | CCc1ccc(C(NC(=O)c2ccc(C(F)(F)F)[nH]c2=O)c2ccc(C)cc2)cc1 (stereo not shown) [Compound 443, N-((4-ethylphenyl)(p-tolyl)methyl)-2-oxo-6-(trifluoromethyl)-1,2-dihydropyridine-3-carboxamide] |
| 170 | CCc1cccc(C(NC(=O)c2ccc(C(F)(F)F)[nH]c2=O)c2ccc(C)cc2)c1 (stereo not shown) [Compound 444, N-((3-ethylphenyl)(p-tolyl)methyl)-2-oxo-6-(trifluoromethyl)-1,2-dihydropyridine-3-carboxamide] |
